From ChEMBL document CHEMBL1201861, “Genomics of Drug Sensitity in Cancer screening data, Wellcome Trust Sanger Institute”

How the values were obtained:
Test in all cases: cells
TE-6 = format: functional, cell-based, Homo sapiens
Description: SANGER: Inhibition of human TE-6 cell growth in a cell viability assay.

SNU-5 = format: functional, cell-based, Homo sapiens
Description: SANGER: Inhibition of human NCI-SNU-5 cell growth in a cell viability assay.

TE-1 = format: functional, cell-based, Homo sapiens
Description: SANGER: Inhibition of human TE-1 cell growth in a cell viability assay.

JAR = format: functional, cell-based, Homo sapiens
Description: SANGER: Inhibition of human JAR cell growth in a cell viability assay.

8-MG-BA = format: functional, cell-based, Homo sapiens
Description: SANGER: Inhibition of human 8-MG-BA cell growth in a cell viability assay.

IA-LM = format: functional, cell-based, Homo sapiens
Description: SANGER: Inhibition of human IA-LM cell growth in a cell viability assay.

D-247MG = format: functional, cell-based, Homo sapiens
Description: SANGER: Inhibition of human D-247MG cell growth in a cell viability assay.

KLE = format: functional, cell-based, Homo sapiens
Description: SANGER: Inhibition of human KLE cell growth in a cell viability assay.

BB65-RCC = format: functional, cell-based, Homo sapiens
Description: SANGER: Inhibition of human BB65-RCC cell growth in a cell viability assay.

BE-13 = format: functional, cell-based, Homo sapiens
Description: SANGER: Inhibition of human BE-13 cell growth in a cell viability assay.

NMC-G1 = format: functional, cell-based, Homo sapiens
Description: SANGER: Inhibition of human NMC-G1 cell growth in a cell viability assay.

BV-173 = format: functional, cell-based, Homo sapiens
Description: SANGER: Inhibition of human BV-173 cell growth in a cell viability assay.

EW-11 = format: functional, cell-based, Homo sapiens
Description: SANGER: Inhibition of human EW-11 cell growth in a cell viability assay.

CW-2 = format: functional, cell-based, Homo sapiens
Description: SANGER: Inhibition of human CW-2 cell growth in a cell viability assay.

LNCaP-Clone-FGC = format: functional, cell-based, Homo sapiens
Description: SANGER: Inhibition of human LNCaP-Clone-FGC cell growth in a cell viability assay.

LS-123 = format: functional, cell-based, Homo sapiens
Description: SANGER: Inhibition of human LS-123 cell growth in a cell viability assay.

ML-2 = format: functional, cell-based, Homo sapiens
Description: SANGER: Inhibition of human ML-2 cell growth in a cell viability assay.

SK-NEP-1 = format: functional, cell-based, Homo sapiens
Description: SANGER: Inhibition of human SK-NEP-1 cell growth in a cell viability assay.

HuTu80 = format: functional, cell-based, Homo sapiens, HUTU-80
Description: SANGER: Inhibition of human HUTU-80 cell growth in a cell viability assay.

KARPAS-45 = format: functional, cell-based, Homo sapiens
Description: SANGER: Inhibition of human KARPAS-45 cell growth in a cell viability assay.

CTB-1 = format: functional, cell-based, Homo sapiens
Description: SANGER: Inhibition of human CTB-1 cell growth in a cell viability assay.

SNU-C2B = format: functional, cell-based, Homo sapiens
Description: SANGER: Inhibition of human SNU-C2B cell growth in a cell viability assay.

COLO-684 = format: functional, cell-based, Homo sapiens
Description: SANGER: Inhibition of human COLO-684 cell growth in a cell viability assay.

DMS-79 = format: functional, cell-based, Homo sapiens
Description: SANGER: Inhibition of human DMS-79 cell growth in a cell viability assay.

LU-139 = format: functional, cell-based, Homo sapiens
Description: SANGER: Inhibition of human LU-139 cell growth in a cell viability assay.

Becker = format: functional, cell-based, Homo sapiens
Description: SANGER: Inhibition of human Becker cell growth in a cell viability assay.

NCI-H526 = format: functional, cell-based, Homo sapiens
Description: SANGER: Inhibition of human NCI-H526 cell growth in a cell viability assay.

RPMI-8866 = format: functional, cell-based, Homo sapiens
Description: SANGER: Inhibition of human RPMI-8866 cell growth in a cell viability assay.

RH-1 = format: functional, cell-based, Homo sapiens
Description: SANGER: Inhibition of human RH-1 cell growth in a cell viability assay.

IST-MES1 = format: functional, cell-based, Homo sapiens
Description: SANGER: Inhibition of human IST-MES1 cell growth in a cell viability assay.

J-RT3-T3-5 = format: functional, cell-based, Homo sapiens
Description: SANGER: Inhibition of human J-RT3-T3-5 cell growth in a cell viability assay.

NB12 = format: functional, cell-based, Homo sapiens
Description: SANGER: Inhibition of human NB12 cell growth in a cell viability assay.

COLO-824 = format: functional, cell-based, Homo sapiens
Description: SANGER: Inhibition of human COLO-824 cell growth in a cell viability assay.

ONS-76 = format: functional, cell-based, Homo sapiens
Description: SANGER: Inhibition of human ONS-76 cell growth in a cell viability assay.

MOLT-16 = format: functional, cell-based, Homo sapiens
Description: SANGER: Inhibition of human MOLT-16 cell growth in a cell viability assay.

NCI-N87 = format: functional, cell-based, Homo sapiens
Description: SANGER: Inhibition of human NCI-N87 cell growth in a cell viability assay.

SK-N-FI = format: functional, cell-based, Homo sapiens
Description: SANGER: Inhibition of human SK-N-FI cell growth in a cell viability assay.

LB373-MEL-D = format: functional, cell-based, Homo sapiens
Description: SANGER: Inhibition of human LB373-MEL-D cell growth in a cell viability assay.

MFM-223 = format: functional, cell-based, Homo sapiens
Description: SANGER: Inhibition of human MFM-223 cell growth in a cell viability assay.

C8166 = format: functional, cell-based, Homo sapiens
Description: SANGER: Inhibition of human C8166 cell growth in a cell viability assay.

L-363 = format: functional, cell-based, Homo sapiens
Description: SANGER: Inhibition of human L-363 cell growth in a cell viability assay.

HAL-01 = format: functional, cell-based, Homo sapiens
Description: SANGER: Inhibition of human HAL-01 cell growth in a cell viability assay.

KY821 = format: functional, cell-based, Homo sapiens
Description: SANGER: Inhibition of human KY821 cell growth in a cell viability assay.

GOTO = format: functional, cell-based, Homo sapiens
Description: SANGER: Inhibition of human GOTO cell growth in a cell viability assay.

NH-12 = format: functional, cell-based, Homo sapiens
Description: SANGER: Inhibition of human NH-12 cell growth in a cell viability assay.

RCC10RGB = format: functional, cell-based, Homo sapiens
Description: SANGER: Inhibition of human RCC10RGB cell growth in a cell viability assay.

D-263MG = format: functional, cell-based, Homo sapiens
Description: SANGER: Inhibition of human D-263MG cell growth in a cell viability assay.

HCC1187 = format: functional, cell-based, Homo sapiens
Description: SANGER: Inhibition of human HCC1187 cell growth in a cell viability assay.

MEG-01 = format: functional, cell-based, Homo sapiens
Description: SANGER: Inhibition of human MEG-01 cell growth in a cell viability assay.

## Nc1cccc2c1CN(C1CCC(=O)NC1=O)C2=O (configuration not stated) [LENALIDOMIDE]
TE-6; Homo sapiens, TE-6
  IC50: > 5 µM
SNU-5; Homo sapiens, SNU-5
  IC50: > 5 µM
TE-1; Homo sapiens, TE-1
  IC50: > 5 µM
JAR; Homo sapiens, JAR
  IC50: 2.97 µM
8-MG-BA; Homo sapiens, 8-MG-BA
  IC50: > 5 µM
IA-LM; Homo sapiens, IA-LM
  IC50: > 5 µM
D-247MG; Homo sapiens, D-247MG
  IC50: > 5 µM
KLE; Homo sapiens, KLE
  IC50: > 5 µM
BB65-RCC; Homo sapiens, BB65-RCC
  IC50: > 5 µM
BE-13; Homo sapiens, BE-13
  IC50: > 5 µM
NMC-G1; Homo sapiens, NMC-G1
  IC50: > 5 µM
BV-173; Homo sapiens, BV-173
  IC50: > 5 µM
EW-11; Homo sapiens, EW-11
  IC50: > 5 µM
CW-2; Homo sapiens, CW-2
  IC50: > 5 µM
LNCaP-Clone-FGC; Homo sapiens, LNCaP-Clone-FGC
  IC50: > 5 µM
LS-123; Homo sapiens, LS-123
  IC50: > 5 µM
ML-2; Homo sapiens, ML-2
  IC50: > 5 µM
SK-NEP-1; Homo sapiens, SK-NEP-1
  IC50: > 5 µM
HuTu80; Homo sapiens, HuTu80
  IC50: > 5 µM
KARPAS-45; Homo sapiens, KARPAS-45
  IC50: > 5 µM
CTB-1; Homo sapiens, CTB-1
  IC50: > 5 µM
SNU-C2B; Homo sapiens, SNU-C2B
  IC50: > 5 µM
COLO-684; Homo sapiens, COLO-684
  IC50: > 5 µM
DMS-79; Homo sapiens, DMS-79
  IC50: > 5 µM
LU-139; Homo sapiens, LU-139
  IC50: > 5 µM
Becker; Homo sapiens, Becker
  IC50: > 5 µM
NCI-H526; Homo sapiens, NCI-H526
  IC50: > 5 µM
RPMI-8866; Homo sapiens, RPMI-8866
  IC50: > 5 µM
RH-1; Homo sapiens, RH-1
  IC50: > 5 µM
IST-MES1; Homo sapiens, IST-MES1
  IC50: > 5 µM
J-RT3-T3-5; Homo sapiens, J-RT3-T3-5
  IC50: > 5 µM
NB12; Homo sapiens, NB12
  IC50: > 5 µM
COLO-824; Homo sapiens, COLO-824
  IC50: > 5 µM
ONS-76; Homo sapiens, ONS-76
  IC50: > 5 µM
MOLT-16; Homo sapiens, MOLT-16
  IC50: > 5 µM
NCI-N87; Homo sapiens, NCI-N87
  IC50: > 5 µM
SK-N-FI; Homo sapiens, SK-N-FI
  IC50: > 5 µM
LB373-MEL-D; Homo sapiens, LB373-MEL-D
  IC50: > 5 µM
MFM-223; Homo sapiens, MFM-223
  IC50: > 5 µM
C8166; Homo sapiens, C8166
  IC50: > 5 µM
L-363; Homo sapiens, L-363
  IC50: 2.92 µM
HAL-01; Homo sapiens, HAL-01
  IC50: > 5 µM
KY821; Homo sapiens, KY821
  IC50: > 5 µM
GOTO; Homo sapiens, GOTO
  IC50: > 5 µM
NH-12; Homo sapiens, NH-12
  IC50: > 5 µM
RCC10RGB; Homo sapiens, RCC10RGB
  IC50: > 5 µM
D-263MG; Homo sapiens, D-263MG
  IC50: > 5 µM
HCC1187; Homo sapiens, HCC1187
  IC50: > 5 µM
MEG-01; Homo sapiens, MEG-01
  IC50: > 5 µM

## CO[C@H]1C[C@@H]2CC[C@@H](C)[C@@](O)(O2)C(=O)C(=O)N2CCCC[C@H]2C(=O)O[C@H]([C@H](C)C[C@@H]2CC[C@@H](OC(=O)C(C)(CO)CO)[C@H](OC)C2)CC(=O)[C@H](C)/C=C(\C)[C@@H](O)[C@@H](OC)C(=O)[C@H](C)C[C@H](C)/C=C/C=C/C=C/1C [TEMSIROLIMUS]
TE-6; Homo sapiens, TE-6
  IC50: 0.189 µM
SNU-5; Homo sapiens, SNU-5
  IC50: > 0.2 µM
TE-1; Homo sapiens, TE-1
  IC50: > 0.2 µM
JAR; Homo sapiens, JAR
  IC50: > 0.2 µM
8-MG-BA; Homo sapiens, 8-MG-BA
  IC50: > 0.2 µM
IA-LM; Homo sapiens, IA-LM
  IC50: > 0.2 µM
D-247MG; Homo sapiens, D-247MG
  IC50: > 0.2 µM
KLE; Homo sapiens, KLE
  IC50: > 0.2 µM
BB65-RCC; Homo sapiens, BB65-RCC
  IC50: 0.007 µM
BE-13; Homo sapiens, BE-13
  IC50: 0.00491 µM
NMC-G1; Homo sapiens, NMC-G1
  IC50: > 0.2 µM
BV-173; Homo sapiens, BV-173
  IC50: 0.0438 µM
EW-11; Homo sapiens, EW-11
  IC50: 0.0156 µM
CW-2; Homo sapiens, CW-2
  IC50: > 0.2 µM
LNCaP-Clone-FGC; Homo sapiens, LNCaP-Clone-FGC
  IC50: 0.184 µM
LS-123; Homo sapiens, LS-123
  IC50: > 0.2 µM
ML-2; Homo sapiens, ML-2
  IC50: > 0.2 µM
SK-NEP-1; Homo sapiens, SK-NEP-1
  IC50: 0.00149 µM
HuTu80; Homo sapiens, HuTu80
  IC50: > 0.2 µM
KARPAS-45; Homo sapiens, KARPAS-45
  IC50: 0.0513 µM
CTB-1; Homo sapiens, CTB-1
  IC50: 0.00293 µM
SNU-C2B; Homo sapiens, SNU-C2B
  IC50: > 0.2 µM
COLO-684; Homo sapiens, COLO-684
  IC50: 0.0133 µM
DMS-79; Homo sapiens, DMS-79
  IC50: > 0.2 µM
LU-139; Homo sapiens, LU-139
  IC50: 0.0533 µM
Becker; Homo sapiens, Becker
  IC50: 0.0799 µM
NCI-H526; Homo sapiens, NCI-H526
  IC50: 0.0616 µM
RPMI-8866; Homo sapiens, RPMI-8866
  IC50: 0.0314 µM
RH-1; Homo sapiens, RH-1
  IC50: > 0.2 µM
IST-MES1; Homo sapiens, IST-MES1
  IC50: > 0.2 µM
J-RT3-T3-5; Homo sapiens, J-RT3-T3-5
  IC50: 0.0124 µM
NB12; Homo sapiens, NB12
  IC50: > 0.2 µM
COLO-824; Homo sapiens, COLO-824
  IC50: > 0.2 µM
ONS-76; Homo sapiens, ONS-76
  IC50: 0.033 µM
MOLT-16; Homo sapiens, MOLT-16
  IC50: 0.0128 µM
NCI-N87; Homo sapiens, NCI-N87
  IC50: 0.175 µM
SK-N-FI; Homo sapiens, SK-N-FI
  IC50: > 0.2 µM
LB373-MEL-D; Homo sapiens, LB373-MEL-D
  IC50: > 0.2 µM
MFM-223; Homo sapiens, MFM-223
  IC50: > 0.2 µM
C8166; Homo sapiens, C8166
  IC50: > 0.2 µM
L-363; Homo sapiens, L-363
  IC50: 0.000242 µM
HAL-01; Homo sapiens, HAL-01
  IC50: > 0.2 µM
KY821; Homo sapiens, KY821
  IC50: > 0.2 µM
GOTO; Homo sapiens, GOTO
  IC50: > 0.2 µM
NH-12; Homo sapiens, NH-12
  IC50: > 0.2 µM
RCC10RGB; Homo sapiens, RCC10RGB
  IC50: > 0.2 µM
D-263MG; Homo sapiens, D-263MG
  IC50: 0.159 µM
HCC1187; Homo sapiens, HCC1187
  IC50: > 0.2 µM
MEG-01; Homo sapiens, MEG-01
  IC50: 0.0882 µM

## CISPLATIN
TE-6; te-6
  IC50: 57.3 µM
SNU-5; snu-5
  IC50: 141 µM
TE-1; te-1
  IC50: 38.5 µM
JAR; jar
  IC50: 3.35 µM
8-MG-BA; 8-mg-ba
  IC50: 5.38 µM
IA-LM; ia-lm
  IC50: 23.1 µM
D-247MG; d-247mg
  IC50: 10.8 µM
KLE; kle
  IC50: 137 µM
BB65-RCC; bb65-rcc
  IC50: 2.82 µM
BE-13; be-13
  IC50: 51.1 µM
NMC-G1; nmc-g1
  IC50: 14.5 µM
BV-173; bv-173
  IC50: 42.1 µM
EW-11; ew-11
  IC50: 21 µM
CW-2; cw-2
  IC50: 24.5 µM
LNCaP-Clone-FGC; lncap-clone-fgc
  IC50: 515 µM
LS-123; ls-123
  IC50: 491 µM
ML-2; ml-2
  IC50: 163 µM
SK-NEP-1; sk-nep-1
  IC50: 7.18 µM
HuTu80; hutu-80
  IC50: 467 µM
KARPAS-45; karpas-45
  IC50: 361 µM
CTB-1; ctb-1
  IC50: 2.3 µM
SNU-C2B; snu-c2b
  IC50: 38.4 µM
COLO-684; colo-684
  IC50: 29.1 µM
DMS-79; dms-79
  IC50: 24.4 µM
LU-139; lu-139
  IC50: 95.6 µM
Becker; becker
  IC50: 17.8 µM
NCI-H526; nci-h526
  IC50: 2.06 µM
RPMI-8866; rpmi-8866
  IC50: 13.2 µM
RH-1; rh-1
  IC50: 333 µM
IST-MES1; ist-mes1
  IC50: 19.7 µM
J-RT3-T3-5; j-rt3-t3-5
  IC50: 148 µM
NB12; nb12
  IC50: 166 µM
COLO-824; colo-824
  IC50: 114 µM
ONS-76; ons-76
  IC50: 3.95 µM
MOLT-16; molt-16
  IC50: 8.36 µM
NCI-N87; nci-n87
  IC50: 33 µM
SK-N-FI; sk-n-fi
  IC50: 313 µM
LB373-MEL-D; lb373-mel-d
  IC50: 11 µM
MFM-223; mfm-223
  IC50: 615 µM
C8166; c8166
  IC50: 208 µM
L-363; l-363
  IC50: 4.01 µM
HAL-01; hal-01
  IC50: 109 µM
KY821; ky821
  IC50: 80 µM
GOTO; goto
  IC50: 3.09 µM
NH-12; nh-12
  IC50: 13.2 µM
RCC10RGB; rcc10rgb
  IC50: 917 µM
D-263MG; d-263mg
  IC50: 6.66 µM
HCC1187; hcc1187
  IC50: 117 µM
MEG-01; meg-01
  IC50: 21.7 µM
